The NIST ThermoML archive (doi:10.1016/j.jct.2019.02.031)

What was measured:
[1] = 101 kPa, Liquid; for viscosity: Falling or rolling sphere viscometry; for mass density: Vibrating tube method
[2] = molar heat capacity at constant pressure; conditions: 101.33 kPa, Liquid, DSC
[3] = xn = mol fraction of the nth substance listed; conditions: 101 kPa, Liquid, x2 = 0; for viscosity: Falling or rolling sphere viscometry; for mass density: Vibrating tube method

Cn1cc[n+](CCC[N+](C)(C)C)c1.N#C[N-]C#N.N#C[N-]C#N
Conditions | mass density, [1] [kg/m3] | molar heat capacity at constant pressure, [2] [J/K/mol] | viscosity, [1] [mPa·s]
283.15 K | 1162.82 | – | 4998
288.15 K | 1159.76 | – | 2736
293.15 K | 1156.74 | – | 1608
298.15 K | 1153.73 | 519.44 | 1007
303.15 K | 1150.76 | 521.65 | 662.9
308.15 K | 1147.8 | 523.85 | 455.4
313.15 K | 1144.89 | 526.06 | 324.6
318.15 K | 1142 | 527.95 | 239.7
323.15 K | 1139.11 | 530.48 | 181.2
328.15 K | 1136.24 | 532.69 | 141.1
333.15 K | 1133.4 | 535.21 | 111.9
338.15 K | – | 537.1 | –
343.15 K | – | 539.62 | –
348.15 K | – | 541.83 | –
353.15 K | – | 543.72 | –
358.15 K | – | 546.25 | –
363.15 K | – | 548.14 | –
368.15 K | – | 550.66 | –
373.15 K | – | 553.19 | –
378.15 K | – | 555.39 | –
383.15 K | – | 557.92 | –
388.15 K | – | 560.12 | –
393.15 K | – | 562.33 | –
398.15 K | – | 564.85 | –
403.15 K | – | 567.06 | –
408.15 K | – | 569.27 | –
413.15 K | – | 571.79 | –
418.15 K | – | 574.32 | –
423.15 K | – | 576.21 | –

CC(C)O [propan-2-ol]
[1]
Conditions | mass density [kg/m3] | viscosity [mPa·s]
283.15 K | 793.67 | 3.352
288.15 K | 789.58 | 2.843
293.15 K | 785.44 | 2.423
298.15 K | 781.24 | 2.08
303.15 K | 776.97 | 1.792
308.15 K | 772.62 | 1.554
313.15 K | 768.18 | 1.352
318.15 K | 763.65 | 1.183
323.15 K | 759.01 | 1.039
328.15 K | 754.26 | 0.918
333.15 K | 749.39 | 0.813

CC(C)O [propan-2-ol] + Cn1cc[n+](CCC[N+](C)(C)C)c1.N#C[N-]C#N.N#C[N-]C#N
[3]
Conditions | mass density [kg/m3] | viscosity [mPa·s]
283.15 K | 793.67 | 3.352
288.15 K | 789.58 | 2.843
293.15 K | 785.44 | 2.423
298.15 K | 781.24 | 2.08
303.15 K | 776.97 | 1.792
308.15 K | 772.62 | 1.554
313.15 K | 768.18 | 1.352
318.15 K | 763.65 | 1.183
323.15 K | 759.01 | 1.039
328.15 K | 754.26 | 0.918
333.15 K | 749.39 | 0.813
